The text below walks through data of US10759813B2, “Neprilysin inhibitors” (THERAVANCE BIOPHARMA R&D IP, LLC, priority 2010, dated 2020).

Broadly, the pKi is −log10 of the Ki, conventionally taken in molar units. Broadly, the Ki is the equilibrium dissociation constant of an inhibitor or competing ligand from its target.

Some results are limits rather than exact numbers.

human neprilysin (EC 3.4.24.11; NEP), sequence (P08473 52-750): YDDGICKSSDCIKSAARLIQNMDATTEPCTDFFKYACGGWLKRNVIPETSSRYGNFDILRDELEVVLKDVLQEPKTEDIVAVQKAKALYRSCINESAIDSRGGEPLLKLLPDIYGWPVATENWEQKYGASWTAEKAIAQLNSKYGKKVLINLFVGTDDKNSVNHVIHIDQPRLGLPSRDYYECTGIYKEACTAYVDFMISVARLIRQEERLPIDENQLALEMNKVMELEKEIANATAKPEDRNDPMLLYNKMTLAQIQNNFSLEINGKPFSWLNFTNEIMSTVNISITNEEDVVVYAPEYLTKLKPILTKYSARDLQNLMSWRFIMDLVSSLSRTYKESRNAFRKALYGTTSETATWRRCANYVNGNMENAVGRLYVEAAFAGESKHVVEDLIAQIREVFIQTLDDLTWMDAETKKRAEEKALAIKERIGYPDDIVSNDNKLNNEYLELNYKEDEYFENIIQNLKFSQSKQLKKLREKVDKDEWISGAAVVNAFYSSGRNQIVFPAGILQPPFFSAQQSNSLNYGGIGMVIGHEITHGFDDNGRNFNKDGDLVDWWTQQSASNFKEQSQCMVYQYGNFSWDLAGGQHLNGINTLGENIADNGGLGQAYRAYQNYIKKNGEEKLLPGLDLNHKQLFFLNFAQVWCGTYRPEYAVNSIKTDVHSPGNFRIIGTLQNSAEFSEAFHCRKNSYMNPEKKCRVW

This assay concerns the target human neprilysin (EC 3.4.24.11; NEP) (Homo sapiens (Human), UniProt P08473). Nature of the assay: In vitro enzyme inhibition assay at human NEP (fluorogenic peptide substrate). In kind it is biochemical. As to conditions: pKi values at human NEP, recombinant human NEP. As for the experimental part: In Vitro Assays for the Quantitation of Inhibitor Potencies at Human and Rat NEP, and Human ACE
The inhibitory activities of compounds at human and rat neprilysin (EC 3.4.24.11; NEP) and human angiotensin converting enzyme (ACE) were determined using in vitro assays as described below.
Recombinant human NEP and recombinant human ACE were obtained commercially (R&D Systems, Minneapolis, Minn., catalog numbers 1182-ZN and 929-ZN, respectively). The fluorogenic peptide substrate Mca-D-Arg-Arg-Leu-Dap-(Dnp)-OH (Medeiros et al. (1997) Braz. J. Med. Biol. Res. 30:1157-62; Anaspec, San Jose, Calif.) and Abz-Phe-Arg-Lys(Dnp)-Pro-OH (Araujo et al. (2000) Biochemistry 39:8519-8525; Bachem, Torrance, Calif.) were used in the NEP and ACE assays respectively.
The assays were performed in 384-well white opaque plates at 37° C. using the fluorogenic peptide substrates at a concentration of 10 μM in Assay Buffer (NEP: 50 mM HEPES, pH 7.5, 100 mM NaCl, 0.01% polyethylene glycol sorbitan monolaurate (Tween-20), 10 μM ZnSO4; ACE: 50 mM HEPES, pH 7.5, 100 mM NaCl, 0.01% Tween-20, 1 μM ZnSO4).
Test compounds were assayed over the range of concentrations from 10 μM to pM. Test compounds were added to the enzymes and incubated for 30 minute at 37° C. prior to initiating the reaction by the addition of substrate. Reactions were terminated after 20 minutes of incubation at 37° C. by the addition of glacial acetic acid to a final concentration of 3.6% (v/v).
Plates were read on a fluorometer with excitation and emission wavelengths set to 320 nm and 405 nm, respectively. Inhibition constants were obtained by nonlinear regression of the data using the equation (GraphPad Software, Inc., San Diego, Calif.): v=v0/[1+(I/K′)] where v is the reaction rate, v0 is the uninhibited reaction rate, I is the inhibitor concentration and K′ is the apparent inhibition constant.
Compounds of the invention were tested in this assay and found to have pKi values at human NEP as follows.
As for `O=C(N[C@H](Cc1ccc(-c2ccccc2)cc1)C[C@@H](O)C(=O)O)c1noc(=O)[nH]1` [Example 12-27, (2R,4R)-5-Biphenyl-4-yl-2-hydroxy-4-[(5-oxo-4,5-dihydro-[1,2,4]oxadiazole-3-carbonyl)-amino]-pentanoic acid], the pKi was at least 9.0.

For `O=C(O)c1cnc(C(=O)N[C@H](Cc2ccc(-c3ccccc3)cc2)CC(O)C(=O)O)cn1` (stereo partly drawn) [Example 13-1, 5-((R)-1-Biphenyl-4-ylmethyl-3-carboxy-3-hydroxypropylcarbamoyl)-pyrazine-2-carboxylic acid], the Ki is 1.26 to 10 nM.

In the case of `O=C(O)c1ccc(C(=O)N[C@H](Cc2ccc(-c3ccccc3)cc2)CC(O)C(=O)O)nn1` (stereo partly drawn) [Example 13-3, 6-((R)-1-Biphenyl-4-ylmethyl-3-carboxy-3-hydroxypropylcarbamoyl)-pyridazine-3-carboxylic acid], the Ki is 12.6 to 100 nM. Regarding `O=C(N[C@H](Cc1ccc(-c2ccccc2)cc1)CC(O)C(=O)O)c1ccc(O)nn1` (stereo partly drawn) [Example 13-5, (R)-5-Biphenyl-4-yl-2-hydroxy-4-[(6-hydroxypyridazine-3-carbonyl)-amino]-pentanoic acid], the Ki is 12.6 to 100 nM. `O=C1CCC(C(=O)N[C@H](Cc2ccc(-c3ccccc3)cc2)CC(O)C(=O)O)=NN1` (stereo partly drawn) [Example 13-6, (R)-5-Biphenyl-4-yl-2-hydroxy-4-[(6-oxo-1,4,5,6-tetrahydro-pyridazine-3-carbonyl)-amino]-pentanoic acid]: the Ki was 12.6 to 100 nM.

Take `O=C(O)c1ccc(C(=O)N[C@H](Cc2ccc(-c3ccccc3)cc2)CC(O)C(=O)O)nc1` (stereo partly drawn) [Example 13-7, 6-((R)-1-Biphenyl-4-ylmethyl-3-carboxy-3-hydroxypropylcarbamoyl)nicotinic acid]: the Ki is 12.6 to 100 nM. Take `O=C(N[C@H](Cc1ccc(-c2ccccc2)cc1)CC(O)C(=O)O)c1ccc(C(=O)O)nc1` (stereo partly drawn) [Example 13-8, 5-((R)-1-Biphenyl-4-ylmethyl-3-carboxy-3-hydroxypropylcarbamoyl)-pyridine-2-carboxylic acid]: the Ki is 12.6 to 100 nM. With `O=C(N[C@H](Cc1ccc(-c2ccccc2)cc1)CC(O)C(=O)O)c1cc[nH]n1` (stereo partly drawn) [Example 15-1, (R)-5-Biphenyl-4-yl-2-hydroxy-4-[(1H-pyrazole-3-carbonyl)amino]pentanoic acid], the Ki is 12.6 to 100 nM. Same read-out and setting: under `O=C(O)Cc1cc(C(=O)N[C@H](Cc2ccc(-c3ccccc3)cc2)C[C@@H](O)C(=O)O)n[nH]1` [Example 15-2, (2R,4R)-5-Biphenyl-4-yl-4-[(5-carboxymethyl-1H-pyrazole-3-carbonyl)amino]-2-hydroxy-pentanoic acid] stands 1.26 to 10 nM; under `O=C(N[C@H](Cc1ccc(-c2ccccc2)cc1)C[C@@H](O)C(=O)O)c1cc(CO)[nH]n1` [Example 15-3, (2R,4R)-5-Biphenyl-4-yl-2-hydroxy-4-[(5-hydroxymethyl-1H-pyrazole-3-carbonyl)-amino]-pentanoic acid], 1.26 to 10 nM; under `COCc1cc(C(=O)N[C@H](Cc2ccc(-c3ccccc3)cc2)C[C@@H](O)C(=O)O)n[nH]1` [Example 15-4, (2R,4R)-5-Biphenyl-4-yl-2-hydroxy-4-[(5-methoxymethyl-1H-pyrazole-3-carbonyl)-amino]-pentanoic acid], 1.26 to 10 nM. Take `Cn1nc(C(=O)N[C@H](Cc2ccc(-c3ccccc3)cc2)C[C@@H](O)C(=O)O)cc1C(=O)O` [Example 15-5, 5-((1R,3R)-1-Biphenyl-4-ylmethyl-3-carboxy-3-hydroxypropylcarbamoyl)-2-methyl-2H-pyrazole-3-carboxylic acid]: the pKi was at least 9.0.

For `O=C(N[C@H](Cc1ccc(-c2ccccc2)cc1)CC(O)C(=O)O)c1cc(C(=O)O)n(Cc2ccc(Cl)c(SC(F)(F)F)c2)n1` (stereo partly drawn) [Example 15-6, 5-((R)-1-Biphenyl-4-ylmethyl-3-carboxy-3-hydroxypropylcarbamoyl)-2-(4-chloro-3-trifluoromethylsulfanyl-benzyl)-2H-pyrazole-3-carboxylic acid], the Ki is 12.6 to 100 nM. Consider `O=C(N[C@H](Cc1ccc(-c2ccccc2)cc1)CC(O)C(=O)O)c1cc(C(=O)O)n(Cc2cccc(Cl)c2)n1` (stereo partly drawn) [Example 15-7, 5-((R)-1-Biphenyl-4-ylmethyl-3-carboxy-3-hydroxypropylcarbamoyl)-2-(3-chlorobenzyl)-2H-pyrazole-3-carboxylic acid], for which the Ki is 1.26 to 10 nM. Still for that read-out and setting: as for `O=C(N[C@H](Cc1ccc(-c2ccccc2)cc1)CC(O)C(=O)O)c1cc(C(=O)O)n(Cc2c(F)cc(Cl)cc2F)n1` (stereo partly drawn) [Example 15-8, 5-((R)-1-Biphenyl-4-ylmethyl-3-carboxy-3-hydroxy-propylcarbamoyl)-2-(4-chloro-2,6-difluorobenzyl)-2H-pyrazole-3-carboxylic acid], the figure is 1.26 to 10 nM; as for `O=C(N[C@H](Cc1ccc(-c2ccccc2)cc1)CC(O)C(=O)O)c1cc(C(=O)O)n(Cc2ccccc2Cl)n1` (stereo partly drawn) [Example 15-9, 5-((R)-1-Biphenyl-4-ylmethyl-3-carboxy-3-hydroxy-propylcarbamoyl)-2-(2-chlorobenzyl)-2H-pyrazole-3-carboxylic acid], 1.26 to 10 nM; as for `O=C(N[C@H](Cc1ccc(-c2ccccc2)cc1)CC(O)C(=O)O)c1cc(C(=O)O)n(Cc2cc(F)ccc2Cl)n1` (stereo partly drawn) [Example 15-10, 5-((R)-1-Biphenyl-4-ylmethyl-3-carboxy-3-hydroxy-propylcarbamoyl)-2-(2-chloro-5-fluorobenzyl)-2H-pyrazole-3-carboxylic acid], 1.26 to 10 nM.

In the case of `O=C(N[C@H](Cc1ccc(-c2ccccc2)cc1)CC(O)C(=O)O)c1cc(C(=O)O)n(Cc2cc(F)cc(Cl)c2)n1` (stereo partly drawn) [Example 15-11, 5-((R)-1-Biphenyl-4-ylmethyl-3-carboxy-3-hydroxy-propylcarbamoyl)-2-(3-chloro-5-fluorobenzyl)-2H-pyrazole-3-carboxylic acid], the Ki is 1.26 to 10 nM. On to `O=C(N[C@H](Cc1ccc(-c2ccccc2)cc1)CC(O)C(=O)O)c1cc(C(=O)O)n(Cc2ccc(Cl)c(OC(F)(F)F)c2)n1` (stereo partly drawn) [Example 15-12, 5-((R)-1-Biphenyl-4-ylmethyl-3-carboxy-3-hydroxy-propylcarbamoyl)-2-(4-chloro-3-trifluoromethoxybenzyl)-2H-pyrazole-3-carboxylic acid], for which the Ki is 12.6 to 100 nM. Same read-out and setting: as for `O=C(N[C@H](Cc1ccc(-c2ccccc2)cc1)CC(O)C(=O)O)c1cc(C(=O)O)n(Cc2ccc(Cl)cc2F)n1` (stereo partly drawn) [Example 15-13, 5-((R)-1-Biphenyl-4-ylmethyl-3-carboxy-3-hydroxy-propylcarbamoyl)-2-(4-chloro-2-fluorobenzyl)-2H-pyrazole-3-carboxylic acid], the figure is 1.26 to 10 nM; as for `O=C(N[C@H](Cc1ccc(-c2ccccc2)cc1)CC(O)C(=O)O)c1cc(C(=O)O)n(Cc2ccc(F)c(Cl)c2)n1` (stereo partly drawn) [Example 15-14, 5-((R)-1-Biphenyl-4-ylmethyl-3-carboxy-3-hydroxy-propylcarbamoyl)-2-(3-chloro-4-fluorobenzyl)-2H-pyrazole-3-carboxylic acid], 1.26 to 10 nM; as for `O=C(N[C@H](Cc1ccc(-c2ccccc2)cc1)CC(O)C(=O)O)c1cc(C(=O)O)n(Cc2ccc(Cl)cc2)n1` (stereo partly drawn) [Example 15-15, 5-((R)-1-Biphenyl-4-ylmethyl-3-carboxy-3-hydroxy-propylcarbamoyl)-2-(4-chlorobenzyl)-2H-pyrazole-3-carboxylic acid], 1.26 to 10 nM. Consider `O=C(N[C@H](Cc1ccc(-c2ccccc2)cc1)CC(O)C(=O)O)c1cc(C(=O)O)n(Cc2c(F)ccc(Cl)c2F)n1` (stereo partly drawn) [Example 15-16, 5-((R)-1-Biphenyl-4-ylmethyl-3-carboxy-3-hydroxy-propylcarbamoyl)-2-(3-chloro-2,6-difluorobenzyl)-2H-pyrazole-3-carboxylic acid], for which the Ki was 1.26 to 10 nM. On the same count and under the same terms, under `COc1cccc(Cn2nc(C(=O)N[C@H](Cc3ccc(-c4ccccc4)cc3)CC(O)C(=O)O)cc2C(=O)O)c1` (stereo partly drawn) [Example 15-17, 5-((R)-1-Biphenyl-4-ylmethyl-3-carboxy-3-hydroxy-propylcarbamoyl)-2-(3-methoxy-benzyl)-2H-pyrazole-3-carboxylic acid] stands 12.6 to 100 nM; under `Cc1cc(C(=O)N[C@H](Cc2ccc(-c3ccccc3)cc2)CC(O)C(=O)O)n[nH]1` (stereo partly drawn) [Example 15-19, (R)-5-Biphenyl-4-yl-2-hydroxy-4-[(5-methyl-1H-pyrazole-3-carbonyl)amino]pentanoic acid], 12.6 to 100 nM; under `O=C(N[C@H](Cc1ccc(-c2ccccc2)cc1)C[C@@H](O)C(=O)O)c1cc(-c2ccncc2)[nH]n1` [Example 15-20, (2R,4R)-5-Biphenyl-4-yl-2-hydroxy-4-[(5-pyridin-4-yl-1H-pyrazole-3-carbonyl)-amino]-pentanoic acid], 1.26 to 10 nM.
